Measurements taken from patent US9968577B2, “Treatment and prevention of bone loss using resolvins” (Forsyth Dental Infirmary for Children, priority 2005, dated 2018).

System: P. gingivalis-induced periodontitis
Assay: Ligature + P. gingivalis experimental periodontitis, topical application of Resolvin E1
Type: in vivo, New Zealand White rabbits
[1] = rabbit, topical, every other day for 6 weeks, compared with baseline

## CC[C@@H](O)/C=C/C=C\C[C@@H](O)/C=C/C=C/C=C\[C@@H](O)CCCC(=O)O [Resolvin E1]
Rabbit model, topical administration
  bone loss: prevents bone loss
rabbit, topical resolvin E1 7 μg/μL in ethanol every other day for 6 weeks, starting six weeks after ligature and P. gingivalis, vs control group
  soft tissue condition (mandibles, FIG. 2): distinctly healthier than the control group
rabbit, topical, every other day for 6 weeks
  deposition of bone (bone growth), conclusion: assisted in deposition of bone
rabbit, topical, every other day for 6 weeks, buccal and lingual, defleshed jaws
  hard tissue crestal distance measurements (FIG. 4 and FIG. 5): same results
rabbit, topical, every other day for 6 weeks, buccal and lingual, vs vehicle alone
  soft tissue pocket depth measurements (FIG. 3): lower
[1]
  hard-tissue-infrabony pocket depth measurements (FIG. 6): improvement over baseline
  soft tissue pocket depth measurements vs baseline (FIG. 3): improvement over baseline
  tooth mobility (FIG. 7): improvement over baseline
